Data from PubChem BioAssay (NCI).
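Each compound was tested at five concentrations against cells in 96-well plates for 48 hours. TGI: concentration producing complete growth inhibition.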

Tests used:
Test in all cases: DTP human tumour cell line panel, 48 h
OVCAR-3 ovarian = system: OVCAR-3 ovarian
NCI-H460 lung = system: NCI-H460 lung
CAKI-1 renal = system: CAKI-1 renal
HOP-62 NSCLC = system: HOP-62 NSCLC
MDA-MB-231 breast = system: MDA-MB-231 breast
MOLT-4 leukemia = system: MOLT-4 leukemia
SW-620 colon = system: SW-620 colon
RPMI-8226 leukemia = system: RPMI-8226 leukemia
HCC-2998 colon = system: HCC-2998 colon
TK-10 renal = system: TK-10 renal
LOX IMVI melanoma = system: LOX IMVI melanoma
SF-295 CNS = system: SF-295 CNS
SF-539 CNS = system: SF-539 CNS
SK-MEL-5 melanoma = system: SK-MEL-5 melanoma
UACC-62 melanoma = system: UACC-62 melanoma
MDA-MB-435 = system: MDA-MB-435
EKVX NSCLC = system: EKVX NSCLC
NCI-H226 lung = system: NCI-H226 lung
SK-MEL-2 melanoma = system: SK-MEL-2 melanoma
HOP-92 NSCLC = system: HOP-92 NSCLC
UACC-257 melanoma = system: UACC-257 melanoma
MALME-3M melanoma = system: MALME-3M melanoma
SNB-75 CNS = system: SNB-75 CNS
SR leukemia = system: SR leukemia
OVCAR-4 ovarian = system: OVCAR-4 ovarian
OVCAR-5 ovarian = system: OVCAR-5 ovarian
RXF 393 renal = system: RXF 393 renal
T-47D breast = system: T-47D breast
SK-OV-3 ovarian = system: SK-OV-3 ovarian
CCRF-CEM leukemia = system: CCRF-CEM leukemia
M14 melanoma = system: M14 melanoma
COLO 205 colon = system: COLO 205 colon
KM12 colon = system: KM12 colon
HCT-116 colon = system: HCT-116 colon
MCF7 breast = system: MCF7 breast
A498 renal = system: A498 renal
SF-268 CNS = system: SF-268 CNS
U251 CNS = system: U251 CNS
PC-3 prostate = system: PC-3 prostate
SK-MEL-28 melanoma = system: SK-MEL-28 melanoma
A549 NSCLC = system: A549 NSCLC
BT-549 breast = system: BT-549 breast
MDA-N = system: MDA-N
NCI-H522 lung = system: NCI-H522 lung
OVCAR-8 ovarian = system: OVCAR-8 ovarian
HCT-15 colon = system: HCT-15 colon
SN12C renal = system: SN12C renal
HL-60(TB) leukemia = system: HL-60(TB) leukemia
ACHN renal = system: ACHN renal
K-562 leukemia = system: K-562 leukemia
NCI/ADR-RES ovarian = system: NCI/ADR-RES ovarian
NCI-H23 lung = system: NCI-H23 lung
786-0 renal = system: 786-0 renal
DU-145 prostate = system: DU-145 prostate
HS 578T breast = system: HS 578T breast
IGROV1 ovarian = system: IGROV1 ovarian
UO-31 renal = system: UO-31 renal
HT29 colon = system: HT29 colon
SNB-19 CNS = system: SNB-19 CNS

Cc1ccc2c3ccc4c(c3n(C)c2c1)C(=O)C=CC4=O
TGI (OVCAR-3 ovarian): 8.6 µM | TGI (NCI-H460 lung): > 10 µM | TGI (CAKI-1 renal): > 10 µM | TGI (HOP-62 NSCLC): > 10 µM | TGI (MDA-MB-231 breast): > 10 µM | TGI (MOLT-4 leukemia): 2.61 µM | TGI (SW-620 colon): 4.58 µM | TGI (RPMI-8226 leukemia): 5.67 µM | TGI (HCC-2998 colon): > 10 µM | TGI (TK-10 renal): > 10 µM | TGI (LOX IMVI melanoma): > 10 µM | TGI (SF-295 CNS): > 10 µM | TGI (SF-539 CNS): > 9.21 µM | TGI (SK-MEL-5 melanoma): > 10 µM | TGI (UACC-62 melanoma): > 10 µM | TGI (MDA-MB-435): > 10 µM | TGI (EKVX NSCLC): > 10 µM | TGI (NCI-H226 lung): > 10 µM | TGI (SK-MEL-2 melanoma): > 10 µM | TGI (HOP-92 NSCLC): 7.26 µM | TGI (UACC-257 melanoma): > 10 µM | TGI (MALME-3M melanoma): 6.01 µM | TGI (SNB-75 CNS): > 10 µM | TGI (SR leukemia): 4.73 µM | TGI (OVCAR-4 ovarian): > 7.77 µM | TGI (OVCAR-5 ovarian): > 10 µM | TGI (RXF 393 renal): > 7.63 µM | TGI (T-47D breast): 5.92 µM | TGI (SK-OV-3 ovarian): > 10 µM | TGI (CCRF-CEM leukemia): 0.844 µM | TGI (M14 melanoma): > 10 µM | TGI (COLO 205 colon): 5.51 µM | TGI (KM12 colon): > 10 µM | TGI (HCT-116 colon): 4.95 µM | TGI (MCF7 breast): > 6.18 µM | TGI (A498 renal): > 10 µM | TGI (SF-268 CNS): > 10 µM | TGI (U251 CNS): > 10 µM | TGI (PC-3 prostate): > 10 µM | TGI (SK-MEL-28 melanoma): > 10 µM | TGI (A549 NSCLC): > 10 µM | TGI (BT-549 breast): > 7.22 µM | TGI (MDA-N): > 10 µM | TGI (NCI-H522 lung): 4.75 µM | TGI (OVCAR-8 ovarian): > 10 µM | TGI (HCT-15 colon): > 10 µM | TGI (SN12C renal): > 10 µM | TGI (HL-60(TB) leukemia): 3.9 µM | TGI (ACHN renal): > 10 µM | TGI (K-562 leukemia): 3.75 µM | TGI (NCI/ADR-RES ovarian): > 10 µM | TGI (NCI-H23 lung): > 10 µM | TGI (786-0 renal): 5.63 µM | TGI (DU-145 prostate): > 10 µM | TGI (HS 578T breast): > 10 µM | TGI (IGROV1 ovarian): > 10 µM | TGI (UO-31 renal): > 10 µM | TGI (HT29 colon): > 10 µM | TGI (SNB-19 CNS): > 10 µM
